Results: ChEMBL document CHEMBL3272133, “1-[4-(4-Chlorophenyl)-2-(2,6-dichlorophenylthio)-n-butyl]-1H-imidazole nitrate, a new potent antifungal agent” (J Med Chem, 1978)
Active and inactive are the calls of the source. No cut-off for these calls is given here.

Columns and labels:
Candida albicans [1] = test: Antifungal activity against Candida albicans infected in mouse assessed as noninfected animals at 100000 U/g administered vaginally bid for 4 days measured on day 7 relative to placebo; assay type: functional, organism-based
Candida albicans [2] = test: Antifungal activity against Candida albicans infected in mouse assessed as noninfected animals at 100000 U/g administered vaginally bid for 4 days measured 6 hrs post last dose relative to placebo; assay type: functional, organism-based
Trichophyton tonsurans = test: Antifungal activity against Trichophyton tonsurans assessed as growth inhibition by agar dilution method; assay type: functional
Salmonella typhimurium [3] = test: Mutagenic activity in Salmonella typhimurium TA-1537 at 0.1 to 100 ug/plate by Ames assay; assay type: toxicity, organism-based; settings: salmonella enterica subsp. enterica serovar typhimurium
Candida albicans [4] = test: Antifungal activity against mixed infection of Candida albicans infected in mouse assessed as noninfected animals at 0.2% formulation administered vaginally bid for 4 days measured on day 7 relative to placebo; assay type: functional
Candida albicans [5] = test: Antifungal activity against Candida albicans infected in mouse assessed as noninfected animals at 1% formulation in neat PEG 400 solution administered vaginally bid for 4 days measured 6 hrs post last dose relative to placebo; assay type: functional
[6] = Antifungal activity against Trichophyton concentricum assessed as growth inhibition by agar dilution method; assay type: functional
Salmonella typhimurium [7] = test: Toxicity in Salmonella typhimurium TA-100 at 500 ug/plate; assay type: organism-based; settings: salmonella enterica subsp. enterica serovar typhimurium
Staphylococcus aureus [8] = test: Antibacterial activity against Staphylococcus aureus No. 14154 assessed as growth inhibition by broth microdilution method; assay type: functional
Staphylococcus aureus [9] = test: Antibacterial activity against Staphylococcus aureus No. 6538 P assessed as growth inhibition by broth microdilution method; assay type: functional
Salmonella typhimurium [10] = test: Mutagenic activity in Salmonella typhimurium TA-1538 at 0.1 to 100 ug/plate by Ames assay in presence of rat liver microsomal enzyme preparation; assay type: toxicity, organism-based; settings: salmonella enterica subsp. enterica serovar typhimurium, microsomes
Cryptococcus neoformans = test: Antifungal activity against Cryptococcus neoformans assessed as growth inhibition by broth dilution method; assay type: functional
Streptococcus pyogenes = test: Antibacterial activity against Streptococcus pyogenes No. 8668 assessed as growth inhibition by broth microdilution method; assay type: functional
Candida albicans [11] = test: Antifungal activity against mixed infection of Candida albicans infected in mouse assessed as noninfected animals at 0.2% formulation administered vaginally bid for 4 days measured 6 hrs post last dose relative to placebo; assay type: functional
[12] = Acute toxicity in po dosed male rat; assay type: organism-based; settings: in vivo
Candida albicans [13] = test: Antifungal activity against Candida albicans infected in mouse assessed as noninfected animals at 0.5% formulation in neat PEG 400 solution administered vaginally bid for 4 days measured 6 hrs post last dose relative to placebo; assay type: functional
[14] = system: Trichophyton mentagrophytes; test: Antifungal activity against Trichophyton mentagrophytes infected in guinea pig assessed as noninfected animals at 0.5% formulation in steryl alcohol, cetyl alcohol, Span 60, Tween 60, propylene glycol, mineral oil, and water administered qd for 5 days measured on day 14; assay type: functional
Candida albicans [15] = test: Antifungal activity against mixed infection of Candida albicans infected in mouse assessed as noninfected animals at 0.5% formulation administered vaginally bid for 4 days measured on day 7 relative to placebo; assay type: functional
Salmonella typhimurium [16] = test: Mutagenic activity in Salmonella typhimurium TA-1535 at 0.1 to 100 ug/plate by Ames assay; assay type: toxicity, organism-based; settings: salmonella enterica subsp. enterica serovar typhimurium
Salmonella typhimurium [17] = test: Mutagenic activity in Salmonella typhimurium TA-1535 at 0.1 to 100 ug/plate by Ames assay in presence of rat liver microsomal enzyme preparation; assay type: toxicity, organism-based; settings: salmonella enterica subsp. enterica serovar typhimurium, microsomes
Salmonella typhimurium [18] = test: Toxicity in Salmonella typhimurium TA-1537 at 500 ug/plate; assay type: organism-based; settings: salmonella enterica subsp. enterica serovar typhimurium
Salmonella typhimurium [19] = test: Mutagenic activity in Salmonella typhimurium TA-100 at 0.1 to 100 ug/plate by Ames assay in presence of rat liver microsomal enzyme preparation; assay type: toxicity, organism-based; settings: salmonella enterica subsp. enterica serovar typhimurium, microsomes
Candida albicans [20] = test: Antifungal activity against mixed infection of Candida albicans infected in mouse assessed as noninfected animals at 0.5% formulation administered vaginally bid for 4 days measured 6 hrs post last dose relative to placebo; assay type: functional
[21] = Acute toxicity in ip dosed rat; assay type: organism-based; settings: in vivo
Candida albicans [22] = test: Antifungal activity against Candida albicans ATCC 14053 assessed as growth inhibition by broth dilution method; assay type: functional
Salmonella typhimurium [23] = test: Mutagenic activity in Salmonella typhimurium TA-1537 at 0.1 to 100 ug/plate by Ames assay in presence of rat liver microsomal enzyme preparation; assay type: toxicity, organism-based; settings: salmonella enterica subsp. enterica serovar typhimurium, microsomes
Saccharomyces cerevisiae [24] = test: Mutagenic activity in Saccharomyces cerevisiae D4 at 0.1 ug/plate by Ames assay in presence of rat liver microsomal enzyme preparation; assay type: toxicity, organism-based; settings: microsomes
Salmonella typhimurium [25] = test: Mutagenic activity in Salmonella typhimurium TA-98 at 0.1 to 100 ug/plate by Ames assay in presence of rat liver microsomal enzyme preparation; assay type: toxicity, organism-based; settings: salmonella enterica subsp. enterica serovar typhimurium, microsomes
Candida albicans [26] = test: Antifungal activity against mixed infection of Candida albicans infected in mouse assessed as noninfected animals at 1% formulation administered vaginally bid for 4 days measured 6 hrs post last dose relative to placebo; assay type: functional
Enterococcus faecalis = test: Antibacterial activity against Streptococcus faecalis No. 8043-2 assessed as growth inhibition by broth microdilution method; assay type: functional
[27] = system: Trichophyton mentagrophytes; test: Antifungal activity against Trichophyton mentagrophytes infected in guinea pig assessed as noninfected animals at 0.5% formulation in steryl alcohol, cetyl alcohol, Span 60, Tween 60, propylene glycol, mineral oil, and water administered qd for 5 days measured on day 7; assay type: functional
Candida albicans [28] = test: Antifungal activity against Candida albicans infected in mouse assessed as noninfected animals at 0.5% formulation in neat PEG 400 solution administered vaginally bid for 4 days measured on day 7 relative to placebo; assay type: functional
Salmonella typhimurium [29] = test: Toxicity in Salmonella typhimurium TA-98 at 500 ug/plate; assay type: organism-based; settings: salmonella enterica subsp. enterica serovar typhimurium
[30] = system: Trichophyton mentagrophytes; test: Antifungal activity against Trichophyton mentagrophytes assessed as growth inhibition by agar dilution method; assay type: functional
Nannizzia gypsea = test: Antifungal activity against Microsporum gypseum assessed as growth inhibition by agar dilution method; assay type: functional
Saccharomyces cerevisiae [31] = test: Mutagenic activity in Saccharomyces cerevisiae D4 at 0.1 ug/plate by Ames assay; assay type: organism-based
Candida albicans [32] = test: Antifungal activity against Candida albicans ATCC 10231 assessed as growth inhibition by broth dilution method; assay type: functional
Salmonella typhimurium [33] = test: Toxicity in Salmonella typhimurium TA-1538 at 500 ug/plate; assay type: organism-based; settings: salmonella enterica subsp. enterica serovar typhimurium
Candida albicans [34] = test: Antifungal activity against Candida albicans infected in mouse assessed as noninfected animals at 0.25% formulation in neat PEG 400 solution administered vaginally bid for 4 days measured 6 hrs post last dose relative to placebo; assay type: functional
[35] = Acute toxicity in po dosed mouse; assay type: organism-based; settings: in vivo
Saccharomyces cerevisiae [36] = test: Toxicity in Saccharomyces cerevisiae D4 at 500 ug/plate; assay type: organism-based; settings: in vivo
Candida albicans [37] = test: Antifungal activity against Candida albicans infected in mouse assessed as noninfected animals at 2% formulation in neat PEG 400 solution administered vaginally bid for 4 days measured 6 hrs post last dose relative to placebo; assay type: functional
[38] = Acute toxicity in po dosed female rat; assay type: organism-based; settings: in vivo
Salmonella typhimurium [39] = test: Mutagenic activity in Salmonella typhimurium TA-1538 at 0.1 to 100 ug/plate by Ames assay; assay type: toxicity, organism-based; settings: salmonella enterica subsp. enterica serovar typhimurium
Candida albicans [40] = test: Antifungal activity against Candida albicans infected in mouse assessed as noninfected animals at 0.25 to 4% formulation in neat PEG 400 solution administered vaginally bid for 4 days measured on day 21; assay type: functional, organism-based
[41] = Acute toxicity in ip dosed mouse; assay type: organism-based; settings: in vivo
Trichophyton rubrum = test: Antifungal activity against Trichophyton rubrum assessed as growth inhibition by agar dilution method; assay type: functional
Candida albicans [42] = test: Antifungal activity against mixed infection of Candida albicans infected in mouse assessed as noninfected animals at 1% formulation in modified PEG 400 solution administered vaginally bid for 4 days measured on day 7 relative to placebo; assay type: functional
Salmonella typhimurium [43] = test: Toxicity in Salmonella typhimurium TA-1535 at 500 ug/plate; assay type: organism-based; settings: salmonella enterica subsp. enterica serovar typhimurium
Salmonella typhimurium [44] = test: Mutagenic activity in Salmonella typhimurium TA-100 at 0.1 to 100 ug/plate by Ames assay; assay type: toxicity, organism-based; settings: salmonella enterica subsp. enterica serovar typhimurium
Candida albicans [45] = test: Antifungal activity against Candida albicans infected in mouse assessed as noninfected animals at 1% formulation in neat PEG 400 solution administered vaginally bid for 4 days measured on day 7 relative to placebo; assay type: functional
[46] = system: Trichophyton mentagrophytes; test: Antifungal activity against Trichophyton mentagrophytes infected in guinea pig assessed as noninfected animals at 0.5% formulation in steryl alcohol, cetyl alcohol, Span 60, Tween 60, propylene glycol, mineral oil, and water administered qd for 5 days measured on day 4; assay type: functional
Microsporum canis = test: Antifungal activity against Microsporum canis assessed as growth inhibition by agar dilution method; assay type: functional
Candida albicans [47] = test: Antifungal activity against mixed infection of Candida albicans infected in mouse assessed as noninfected animals at 0.1% formulation administered vaginally bid for 4 days measured 6 hrs post last dose relative to placebo; assay type: functional
Candida albicans [48] = test: Antifungal activity against Candida albicans infected in mouse assessed as noninfected animals at 2% formulation in neat PEG 400 solution administered vaginally bid for 4 days measured on day 7 relative to placebo; assay type: functional
Epidermophyton floccosum = test: Antifungal activity against Epidermophyton floccosum assessed as growth inhibition by agar dilution method; assay type: functional
Candida albicans [49] = test: Antifungal activity against mixed infection of Candida albicans infected in mouse assessed as noninfected animals at 1% formulation administered vaginally bid for 4 days measured on day 7 relative to placebo; assay type: functional
Salmonella typhimurium [50] = test: Mutagenic activity in Salmonella typhimurium TA-98 at 0.1 to 100 ug/plate by Ames assay; assay type: toxicity, organism-based; settings: salmonella enterica subsp. enterica serovar typhimurium
Candida albicans [51] = test: Antifungal activity against Candida albicans infected in mouse assessed as noninfected animals at 0.25% formulation in neat PEG 400 solution administered vaginally bid for 4 days measured on day 7 relative to placebo; assay type: functional
Candida albicans [52] = test: Antifungal activity against mixed infection of Candida albicans infected in mouse assessed as noninfected animals at 0.1% formulation administered vaginally bid for 4 days measured on day 7 relative to placebo; assay type: functional

With NYSTATIN the Activity (Candida albicans [1]) was 0% and the Activity (Candida albicans [2]) was 10%.

In the case of Clc1ccc(CCC(Cn2ccnc2)Sc2c(Cl)cccc2Cl)cc1.O=[N+]([O-])O (stereo not given) [BUTOCONAZOLE NITRATE], the GI (Trichophyton tonsurans) is reported as 5 µg/mL, the Activity (Salmonella typhimurium [3]) is reported as “Non-toxic” and the Activity (Candida albicans [4]) is reported as 63%. The Activity (Candida albicans [5]) was 90%, the GI [6] was 0.05 µg/mL and the Activity (Salmonella typhimurium [7]) was “Toxic”. The GI (Staphylococcus aureus [8]) was 12.5 µg/mL, the GI (Staphylococcus aureus [9]) was 6.25 µg/mL and the Activity (Salmonella typhimurium [10]) was “Non-toxic”. For the same molecule, the GI (Cryptococcus neoformans) was “<=1 ug ml-1”, the GI (Streptococcus pyogenes) was 0.0016 µg/mL and the Activity (Candida albicans [11]) was 60%. The LD50 [12] was over 3200 mg/kg, the Activity (Candida albicans [13]) was 80% and the Activity [14] was 40%. The Activity (Candida albicans [15]) was 60%, the Activity (Salmonella typhimurium [16]) was “Non-toxic” and the Activity (Salmonella typhimurium [17]) was “Non-toxic”. The Activity (Salmonella typhimurium [18]) was “Toxic”, the Activity (Salmonella typhimurium [19]) was “Non-toxic” and the Activity (Candida albicans [20]) was 65%. The LD50 [21] was 940 mg/kg, the GI (Candida albicans [22]) was 10 µg/mL and the Activity (Salmonella typhimurium [23]) was “Non-toxic”. For the same molecule, the Activity (Saccharomyces cerevisiae [24]) was “Non-toxic”, the Activity (Salmonella typhimurium [25]) was “Non-toxic” and the Activity (Candida albicans [26]) was 84%. The GI (Enterococcus faecalis) was 3.12 µg/mL, the Activity [27] was 90% and the Activity (Candida albicans [28]) was 75%. For the same molecule, the Activity (Salmonella typhimurium [29]) was “Toxic”, the GI [30] was 1 µg/mL and the GI (Nannizzia gypsea) was 0.05 µg/mL. For the same molecule, the Activity (Saccharomyces cerevisiae [31]) was “Non-toxic”, the GI (Candida albicans [32]) was 30 µg/mL and the Activity (Salmonella typhimurium [33]) was “Toxic”. For the same molecule, the Activity (Candida albicans [34]) was 75%, the LD50 [35] was over 3200 mg/kg and the Activity (Saccharomyces cerevisiae [36]) was “Toxic”. For the same molecule, the Activity (Candida albicans [37]) was 85%, the LD50 [38] was 1720 mg/kg and the Activity (Salmonella typhimurium [39]) was “Non-toxic”. For the same molecule, the Activity (Candida albicans [40]) was “Active”, the LD50 [41] was over 1600 mg/kg and the GI (Trichophyton rubrum) was 0.05 µg/mL. For the same molecule, the Activity (Candida albicans [42]) was 55%, the Activity (Salmonella typhimurium [43]) was “Toxic” and the Activity (Salmonella typhimurium [44]) was “Non-toxic”. For the same molecule, the Activity (Candida albicans [45]) was 95%, the Activity [46] was 60% and the GI (Microsporum canis) was 0.1 µg/mL. It also gave an Activity (Candida albicans [47]) of 35%, an Activity (Candida albicans [48]) of 85% and a GI (Epidermophyton floccosum) of 5 µg/mL. The Activity (Candida albicans [49]) was 83%, the Activity (Salmonella typhimurium [50]) was “Non-toxic” and the Activity (Candida albicans [51]) was 75%. For the same molecule, the Activity (Candida albicans [52]) was 40%.
